# Experimental data reported in patent US20090326008A1, “NF-kappa B Inhibitor” (priority 2006, published 2009).
# Test system: NF-κB
# Test: NF-kappaB reporter assay (pNF-kappaB-SEAP) in IL-1β-stimulated MKN-45 cells
# Type: cell-based, human
# Details: IL-1β 2 ng/mL for 6 hours, DMSO (0.05%) control = 1.00, triplicate
# Protocol: pNF-kappaB-SEAP was obtained from Clonetech Laboratories Inc.
# Cryopreserved MKN-45 cells (product of JCRB (Japanese Collection of Research Bioresources)) were thawed and cultured in a standard medium in an incubator (37° C., 5% CO2). Every three to five days, the cells were recovered by treatment with Trypsin-EDTA, then adequately diluted and subcultured. MKN-45 cells subcultured two or more times with a survival rate of 95% or more were used in each experiment.
# The subcultured MKN-45 cells were harvested using Trypsin-EDTA solution, and the number of viable cells was counted. The cells were suspended in a standard medium to yield a 1.5×10^5 cells/mL suspension. A 24-well plate was seeded with 500 μL/well of the cell suspension, and the cells were cultured in an incubator (37° C., 5% CO2).
# The day after seeding, transfection was performed according to the following protocol.
# (4.1) Preparation of Plasmid Solution 4 μL of 0.1 μg/μL pNFkappaB-SEAP was placed into each well and diluted with 50 μL of OPTI-MEM I (product of Invitrogen Japan K.K.) by mixing by inversion.
# 1 μL of Lipofectamine 2000 reagent (product of Invitrogen) was placed into each well and diluted with 50 μL of OPTI-MEM I (product of Life Technologies Inc.) by mixing by inversion. The mixture was allowed to stand at room temperature for 5 to 10 minutes to prepare a Lipofectamine dilution.
# The plasmid solution and the Lipofectamine dilution were mixed by inversion and allowed to stand at room temperature for 20 to 30 minutes to prepare a transfection mixture.
# The culture medium was removed from the 24-well plate by suction. While care was taken not to dry the subcultured MKN-45 cells, the inner surface of the wells was washed with 1 mL/well of PBS. After the medium was replaced with 500 μL/well of OPTI-MEM I (product of Life Technologies Inc.), 100 μL/well of the transfection mixture was added, and the cells were cultured in a incubator (37° C., 5% CO2). After about 5 hours of incubation, the medium was replaced with a standard medium, and the cells were further cultured in a CO2 incubator (37° C., 5% CO2) until the following day.
# On the following morning, the culture medium supernatant was removed by suction and replaced with 1 mL/well of the test compound solution or control solution diluted with a standard medium. The cells were cultured in a CO2 incubator (37° C., 5% CO2) for 1 hour. Each experiment was performed in triplicate.
# 200 ng/mL IL-1β was added in an amount of 10 μL/well (final concentration: 2 ng/mL), and the cells were cultured in a CO2 incubator (37° C., 5% CO2) for 6 hours.
# A reporter assay was performed using Reporter Assay Kit-SEAP (product of Toyobo Co.) according to the manufacturer's protocol.
# More specifically, 500 μL of the culture broth was transferred into a tube and centrifuged at 15,000 rpm for 5 minutes at 4° C. The supernatant was transferred into a 96-well white plate. The positive control included in the Reporter Assay Kit-SEAP, and a standard medium as a blank control were each added in an amount of 20 μL/well to the 96-well white plate. Further, an inhibitor for inhibiting the AP activity of the MKN-45 cells was added in an amount of 20 μL/well. After sealing the plate, the contents were mixed well. The plate was placed into a CO2 incubator (37° C., 5% CO2) and allowed to stand for 30 minutes. Subsequently, the plate was allowed to stand on ice for 1 minute, followed by addition of 160 μL/well of Lumi-Phos Plus (a chemiluminescent substrate, product of Lumigen Inc.). The plate was sealed again and placed in a light-shielded state into a CO2 incubator (37° C., 5% CO2). After the plate was allowed to stand for 15 to 30 minutes, luminescence was measured for about 5 to about 10 seconds using a luminometer.
# The results of the reporter assay were expressed as Percent Control (or Inhibition), calculated according to the following formulae. The luminescence of each sample was calculated by subtracting the average of blank samples.
structure (smiles),measurement,value
COc1ccc(CC2SC(=S)NC2=O)c2c1N(CCC(C)C)C(=O)CC2 (stereo not shown) [Test Compound 965],"NF-kappaB reporter (SEAP luminescence) IL-1b(+) mean, relative to control",0.68
